{"source": "PubChem BioAssay AID1259411", "about": "(Chemical Carcinogenesis Research Information System (CCRIS), 2018)", "tested_on": "rodent carcinogenicity bioassays, tumor incidence", "assay": "CCRIS carcinogenicity studies", "procedure,_shortened": "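NCI-built, expert-reviewed records of carcinogenicity and related test outcomes (mutagenicity, tumor promotion/inhibition) compiled from published and report sources, historical span 1985-2011, not updated.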", "note": "Calls of active or inactive are those of the source. The rule behind the calls is not given here.", "data": [{"smiles": "COc1cc2c(c3oc(=O)c4c(c13)CC[C@@H]4O)[C@@H]1C=CO[C@@H]1O2", "values": [{"measurement": "carcinogen call", "setting": "Species: FISH, Strain/Sex: SHASTA RAINBOW TROUT/MALE, FEMALE, Route: IMMERSION, Dose: 0, 0.01, 0.025, 0.05, 0.1, 0.25, 0.5 PPM SOLUTION IN WATER FOR 1 HR EXPOSURE OF EMBRYOS (STUDY DURATION: 13 MO), Dose: 0, 0.01, 0.025, 0.05, 0.1, 0.25, 0.5 PPM SOLUTION IN WATER FOR 1 HR EXPOSURE OF EMBRYOS (STUDY DURATION: 13 MO), Tumor Site: Type of Lesion: LIVER: TUMORS", "result": "active; positive"}, {"measurement": "carcinogen call", "setting": "Species: FISH, Strain/Sex: SHASTA RAINBOW TROUT/MALE, FEMALE, Route: ORAL, Dose: 0, 4, 8, 16, 32, 64 PPB IN DIET FOR 2 WK FOLLOWED BY CONTROL DIET FOR THE DURATION OF STUDY (STUDY DURATION: 9 MO), Dose: 0, 4, 8, 16, 32, 64 PPB IN DIET FOR 2 WK FOLLOWED BY CONTROL DIET FOR THE DURATION OF STUDY (STUDY DURATION: 9 MO), Tumor Site: Type of Lesion: LIVER: TUMOR", "result": "active; positive"}, {"measurement": "carcinogen call", "setting": "Species: RAT, Strain/Sex: F344/MALE, Route: ORAL, Dose: 50, 200 PPB IN DIET 2/WK FOR 12 MO, Tumor Site: Type of Lesion: LIVER: HEPATOCELLULAR CARCINOMA", "result": "active; positive"}, {"measurement": "carcinogen call", "setting": "Species: TROUT, Strain/Sex: MT. SHASTA RAINBOW, Route: ORAL, Dose: 29 PPB IN DIET FOR 12 MO, Tumor Site: Type of Lesion: LIVER: HEPATOCELLULAR CARCINOMA", "result": "active; positive"}]}, {"smiles": "CCCN(CC(C)=O)N=O", "values": [{"measurement": "carcinogen call", "setting": "Species: HAMSTER, Strain/Sex: SYRIAN/MALE,FEMALE, Route: SUBCUTANEOUS, Dose: 50-200 MG/KG 1/WK FOR LIFE, Tumor Site: Type of Lesion: RESPIRATORY TRACT, LIVER, KIDNEY, Tumor Site: Type of Lesion: RESPIRATORY TRACT, LIVER, KIDNEY", "result": "active; positive"}, {"measurement": "carcinogen call", "setting": "Species: MOUSE, Strain/Sex: NMRI/FEMALE, Route: SUBCUTANEOUS, Dose: 0.05, 0.1, 0.2% OF 603 MG/KG IN SALINE 1/WK FOR LIFE, Dose: 0.05, 0.1, 0.2% OF 603 MG/KG IN SALINE 1/WK FOR LIFE, Tumor Site: Type of Lesion: LIVER: HEMANGIOENDOTHELIAL SARCOMA, NASAL CAVITY: PAPILLOMA, ADENOCARCINOMA, NASAL TURBINATES: PAPILLOMA, ADENOCARCINOMA, Tumor Site: Type of Lesion: LIVER: HEMANGIOENDOTHELIAL SARCOMA, NASAL CAVITY: PAPILLOMA, ADENOCARCINOMA, NASAL TURBINATES: PAPILLOMA, ADENOCARCINOMA", "result": "active; positive"}, {"measurement": "carcinogen call", "setting": "Species: RAT, Strain/Sex: SPRAGUE-DAWLEY/MALE,FEMALE, Route: SUBCUTANEOUS, Dose: 0.12, 0.42, 0.85 MG/KG 1/WK FOR LIFE, Dose: 0.12, 0.42, 0.85 MG/KG 1/WK FOR LIFE, Tumor Site: Type of Lesion: LIVER: HEPATOMA, CARCINOMA", "result": "active; positive"}]}, {"smiles": "CCOc1ccc(NC(C)=O)cc1N", "values": [{"measurement": "carcinogen call", "setting": "Species: MOUSE, Strain/Sex: B6C3F1/FEMALE, Route: ORAL, Dose: 0, 0.4, 0.8% OF DIET, Dose: 0, 0.4, 0.8% OF DIET", "result": "inactive; negative"}, {"measurement": "carcinogen call", "setting": "Species: MOUSE, Strain/Sex: B6C3F1/MALE, Route: ORAL, Dose: 0, 0.4, 0.8% OF DIET, Dose: 0, 0.4, 0.8% OF DIET, Tumor Site: Type of Lesion: THYROID GLAND: FOLLICULAR CELL ADENOMA, CARCINOMA, ADENOCARCINOMA, ADENOMA, LUNG: ALVEOLAR/BRONCHIOLAR ADENOMA, CARCINOM", "result": "active; positive"}, {"measurement": "carcinogen call", "setting": "Species: RAT, Strain/Sex: F344/FEMALE, Route: ORAL, Dose: 0, 0.4, 1.5% OF DIET, Dose: 0, 0.4, 1.5% OF DIET", "result": "inactive; negative"}, {"measurement": "carcinogen call", "setting": "Species: RAT, Strain/Sex: F344/MALE, Route: ORAL, Dose: 0, 0.4, 1.5% OF DIET, Dose: 0, 0.4, 1.5% OF DIET", "result": "inactive; negative"}]}, {"smiles": "CN(C#N)N=O", "values": [{"measurement": "carcinogen call", "setting": "Species: RAT, Strain/Sex: SPRAGUE-DAWLEY/FEMALE, Route: ORAL, Dose: 0, 6.9 MG/KG IN 25 ML DRINKING WATER DAILY (STUDY DURATION: >11 MO), Tumor Site: Type of Lesion: FORESTOMACH: SQUAMOUS CELL CARCINOMA, ESOPHAGUS: SQUAMOUS CELL PAPILLOMA OR SQUAMOUS CELL CARCINOMA", "result": "active; positive"}]}, {"smiles": "Nc1ccc(Cl)cc1", "values": [{"measurement": "carcinogen call", "setting": "Species: MOUSE, Strain/Sex: B6C3F1/F, Route: GAVAGE, Dose: 0, 3, 10, 30 MG/KG IN ACIDIFIED WATER 5D/WK FOR 103 WK (STUDY DURATION: 104 WK, Dose: 0, 3, 10, 30 MG/KG IN ACIDIFIED WATER 5D/WK FOR 103 WK (STUDY DURATION: 104 WK", "result": "inactive; negative"}, {"measurement": "carcinogen call", "setting": "Species: MOUSE, Strain/Sex: B6C3F1/FEMALE, Route: ORAL, Dose: 0, 2500, 5000 PPM IN DIET FOR 78 WK (STUDY DURATION: 91 WK), Dose: 0, 2500, 5000 PPM IN DIET FOR 78 WK (STUDY DURATION: 91 WK), Tumor Site: Type of Lesion: SPLEEN: HEMANGIOMA AND HEMANGIOSARCOMA, LIVER: HEMANGIOSARCOMA, MULTIPLE ORGANS: HEMANGIOSARCOMA, Tumor Site: Type of Lesion: SPLEEN: HEMANGIOMA AND HEMANGIOSARCOMA, LIVER: HEMANGIOSARCOMA, MULTIPLE ORGANS: HEMANGIOSARCOMA", "result": "equivocal"}, {"measurement": "carcinogen call", "setting": "Species: MOUSE, Strain/Sex: B6C3F1/MALE, Route: GAVAGE, Dose: 0, 3, 10, 30 MG/KG IN ACIDIFIED WATER 5D/WK FOR 103 WK (STUDY DURATION: 104 WK), Dose: 0, 3, 10, 30 MG/KG IN ACIDIFIED WATER 5D/WK FOR 103 WK (STUDY DURATION: 104 WK), Tumor Site: Type of Lesion: LIVER: HEPATOCELLULAR CARCINOMA, LIVER: HEPATOCELLULAR ADENOMA OR CARCINOMA, CIRCULATORY SYSTEM: HEMANGIOSARCOMA, Tumor Site: Type of Lesion: LIVER: HEPATOCELLULAR CARCINOMA, LIVER: HEPATOCELLULAR ADENOMA OR CARCINOMA, CIRCULATORY SYSTEM: HEMANGIOSARCOMA", "result": "active; positive"}, {"measurement": "carcinogen call", "setting": "Species: MOUSE, Strain/Sex: B6C3F1/MALE, Route: ORAL, Dose: 0, 2500, 5000 PPM IN DIET FOR 78 WK (STUDY DURATION: 91 WK), Dose: 0, 2500, 5000 PPM IN DIET FOR 78 WK (STUDY DURATION: 91 WK), Tumor Site: Type of Lesion: SPLEEN: HEMANGIOSARCOMA, LIVER: HEMANGIOMA AND HEMANGIOSARCOMA, KIDNEY: HEMANGIOSARCOMA, MULTIPLE ORGANS: HEMANGIOSARCOM, Tumor Site: Type of Lesion: SPLEEN: HEMANGIOSARCOMA, LIVER: HEMANGIOMA AND HEMANGIOSARCOMA, KIDNEY: HEMANGIOSARCOMA, MULTIPLE ORGANS: HEMANGIOSARCOM", "result": "equivocal"}, {"measurement": "carcinogen call", "setting": "Species: RAT, Strain/Sex: F344/FEMALE, Route: GAVAGE, Dose: 0, 2, 6, 18 MG/KG IN ACIDIFIED WATER 5D/WK FOR 103 WK (STUDY DURATION: 104 WK), Dose: 0, 2, 6, 18 MG/KG IN ACIDIFIED WATER 5D/WK FOR 103 WK (STUDY DURATION: 104 WK), Tumor Site: Type of Lesion: SPLEEN: SARCOMA, ADRENAL GLAND: PHEOCHROMOCYTOMA", "result": "equivocal"}, {"measurement": "carcinogen call", "setting": "Species: RAT, Strain/Sex: F344/FEMALE, Route: ORAL, Dose: 0, 250, 500 PPM IN DIET FOR 78 WK (STUDY DURATION: 102 WK), Dose: 0, 250, 500 PPM IN DIET FOR 78 WK (STUDY DURATION: 102 WK)", "result": "inactive; negative"}, {"measurement": "carcinogen call", "setting": "Species: RAT, Strain/Sex: F344/MALE, Route: GAVAGE, Dose: 0, 2, 6, 18 MG/KG IN ACIDIFIED WATER 5D/WK FOR 103 WK (STUDY DURATION: 104 WK), Dose: 0, 2, 6, 18 MG/KG IN ACIDIFIED WATER 5D/WK FOR 103 WK (STUDY DURATION: 104 WK), Tumor Site: Type of Lesion: ADRENAL MEDULLA: PHEOCHROMOCYTOMA, ADRENAL MEDULLA: PHEOCHROMOCYTOMA OR MALIGNANT PHEOCHROMOCYTOMA, SPLEEN: FIBROSARCOMA, Tumor Site: Type of Lesion: ADRENAL MEDULLA: PHEOCHROMOCYTOMA, ADRENAL MEDULLA: PHEOCHROMOCYTOMA OR MALIGNANT PHEOCHROMOCYTOMA, SPLEEN: FIBROSARCOMA", "result": "active; positive"}, {"measurement": "carcinogen call", "setting": "Species: RAT, Strain/Sex: F344/MALE, Route: ORAL, Dose: 0, 250, 500 PPM IN DIET FOR 78 WK (STUDY DURATION: 102 WK), Dose: 0, 250, 500 PPM IN DIET FOR 78 WK (STUDY DURATION: 102 WK), Tumor Site: Type of Lesion: SPLEEN OR PERITONEUM: SARCOMA", "result": "active; positive"}, {"measurement": "carcinogen call", "setting": "Species: RAT, Strain/Sex: F344/MALE, Route: ORAL, Dose: 0, 250, 500 PPM IN DIET FOR 78 WK (STUDY DURATION: 102 WK), Dose: 0, 250, 500 PPM IN DIET FOR 78 WK (STUDY DURATION: 102 WK), Tumor Site: Type of Lesion: SPLEEN: FIBROMA AND SARCOMA", "result": "equivocal"}]}]}
